Results from publication PMC11394972 (International Journal of Molecular Sciences, 2024).

Tested on: MazF-mt3
Assay type: biochemical, Mycobacterium tuberculosis
Conditions: FAM-labeled 13-nt RNA substrate, 37 °C, 30 min

| Molecule | reduction of the cleavage of the WT MazF-mt3 enzyme (Figure 4A) | suppression of the cleavage activity of MazF-mt3 (20 mM Tris-HCl pH 8.0, 150 mM NaCl, urea-PAGE, Figure S8) |
| --- | --- | --- |
| MazE-mt3 α3–α4: peptide corresponding to the last two helices (α3-α4, Leu46-Trp82) of MazE-mt3; cocrystallized with MazF-mt3 (PDB 8ZWS) (LTGQIDRALESIHGTDEAEALAVANAYRVLETMDDEW) | 15% |  |
| MazE-mt3: full-length antitoxin of the M. tb MazEF-mt3 toxin–antitoxin pair, recombinantly expressed (protein, left off: His tag, end not stated, state not stated, full-length antitoxin of the M. tb MazEF-mt3 toxin–antitoxin pair, recombinantly expressed) MKTAISLPDETFDRVSRRASELGMSRSEFFTKAAQRYLHELDAQLLTGQIDRALESIHGTDEAEALAVANAYRVLETMDDEW |  | fully suppress |
